# Earlier results as cited in patent US20040043089A1, “Buguzhi agent and composition and methods of preparing and administering the same” (priority 2002, published 2004).
# Conditions: literature statement
row,SMILES,Phototoxicity (in words)
1,Cc1cc2cc3c(C)cc(=O)oc3c(C)c2o1 [Trioxsalen],weak phototoxicity
2,O=c1ccc2ccc3occc3c2o1 [angelicin],only weakly phototoxic
3,"COc1c2ccoc2cc2oc(=O)ccc12 [bergapten, 5-methoxypsoralen]",phototoxic
4,COc1c2ccoc2c(OC)c2oc(=O)ccc12 [isopimpinellin],only weakly phototoxic
5,COc1c2occc2c(OC)c2c(=O)cc(C)oc12 [khellin],weak phototoxicity
6,CC(C)=CCc1c(O)ccc2ccc(=O)oc12 [osthenol],weak phototoxicity
7,COc1c(C(C)C)oc2cc3oc(=O)ccc3cc12 [peucedanin],weak phototoxicity
8,"COc1c2occc2cc2ccc(=O)oc12 [xanthotoxin, 8-methoxypsoralen]",phototoxic
